The source of these data is US20240197760A1, “ACTIVATORS OF INTEGRATED STRESS RESPONSE PATHWAY FOR PROTECTION AGAINST FERROPTOSIS” (Burke Neurological Institute, priority 2021, published 2024).

One assay relates to primary neurons. Nature of the assay: High throughput RNA sequencing of primary neurons. The class given is cell-based, mouse. As for the experimental part: Primary cortical neurons were treated with 2-DG (1 mM and 10 mM) for 6 h from three independent cultures and RNA was isolated from each sample using a NucleoSpin RNA II Kit (Clontech, Catalog number-740955-250). For each RNA sample, RNA quality was initially quantified using the RNA Integrity Number (RIN) on an Agilent Bioanalyzer (Agilent Genomics). RNA-sequencing was carried out for the RNAs with by the UCLA Neuroscience Genomics Core. In brief, cDNA was generated using Ovation® RNA-Seq System V2 (NuGEN) followed by the library preparation using Illumina's TruSeq Stranded RNA (100 ng)+RiboZero Gold. The libraries were pooled and sequenced to generate 75 bp paired end reads on HiSeqTM4000 system (Illumina). Minimum of […] reads were obtained. Reads were aligned to the mouse mm10 reference genome using the STAR (ver 2.4.0) spliced read aligner (Dobin et al., 2013). Uniquely aligned read percentage was […](SD). Various quality matrix was generated to use high quality data for the analysis. Read counts for mouse […] genes were generated by HT-seq 0.6.1 (Anders et al., 2015). Genes with at least 5 read events at least half of samples were permitted into the dataset, for a total of 15,787 genes. Raw counts were normalized by trimmed mean of M values (TMM). Differentially expressed genes (DEG) were analyzed using an EdgeR bioconductor R (Robinson et al., 2010). False discovery rate less than 0.1 is used to define differentially expressed genes. Gene Set Enrichment Analysis (GSEA) was performed with gene lists sorted by directional p-Values from differential expression analysis. Raw and processed RNAseq data are deposited to Gene Expression Omnibus (GEO #).

A further assay concerns Trib3, Chac1, Bip. The assay can be described thus: Expression of ATF4 target genes and chaperone Bip in mouse primary neurons. It counts as cell-based. Conditions: 6 h, mouse primary neurons. How it is done: Total RNA was extracted from primary cortical neurons using NucleoSpin RNA II Kit (Clontech, Catalog number—740955-250). Thereafter, using the Taqman RNA-to-Ct, one step kit (Thermo Fisher Scientific, catalog number—4392938) and following the manufacturer's instructions, […] from each sample was mixed with the Taqman® Gene Expression Master Mix and Taqman® Gene Expression Assays for Creb1 (Catalog number—Mm00501607_m1), Bdnf (Catalog number—Mm04230607_s1), Rbbp4 (Catalog number—Mm00771401_g1), Bip (Catalog number—Mm00517691_m1), Trib3 (Catalog number—Mm00454879_m1), and Chac1 (Catalog number—Mm00509926_m1) with FAM labelled probe and Actin with VIC labelled probe all from Thermo Fisher Scientific on an Applied Biosystems 7500 Fast Real Time PCR System. For assessing gene expression of various specific Bdnf exons in mouse primary neurons, two step qPCR was used. Total RNA from primary cortical neurons was extracted using NucleoSpin RNA II Kit (Clontech, Catalog number—740955-250) and a total of 1.5 μg RNA was used to synthesize cDNA with the SuperScript® III First-Strand Synthesis System (Thermo Fisher Scientific, Catalog number—18080051). Quantitative RT-PCR was then performed using SYBR green (Thermo Fisher Scientific, Catalog number—4309155) on an Applied Biosystems 7500 Fast Real Time PCR System. Quantitative levels for all genes were normalized to the housekeeping gene GAPDH and expressed relative to the relevant control samples as fold change. The sequences of primers used in this part of the study were as follows: Bdnf I forward: […] (SEQ ID NO:9) and Bdnf I reverse: […] (SEQ ID NO:10); Bdnf II forward: […] (SEQ ID NO:11) and Bdnf II reverse: […] (SEQ ID NO:12); Bdnf IV forward #2: […] (SEQ ID NO:13) and Bdnf IV reverse #2: […] (SEQ ID NO:14); Bdnf VI forward: […] (SEQ ID NO:15) and Bdnf VI reverse: […] (SEQ ID NO:16); Bdnf VII forward: […] (SEQ ID NO:17) and Bdnf VII reverse: […] (SEQ ID NO:18) Bdnf IX forward: […] (SEQ ID NO:19) and Bdnf IX reverse: […] (SEQ ID NO:20); Gapdh forward #2: […] (SEQ ID NO:21) and Gapdh reverse #2: […] (SEQ ID NO: 22).

Entries after “also recorded” stand apart in the source; their conditions may differ.

On to `OC[C@H]1OC(O)C[C@@H](O)[C@@H]1O` (stereo partly drawn) [2-DG, (4R,5S,6R)-6-(hydroxymethyl)oxane-2,4,5-triol], for which, in the assay on primary neurons (1 mM and 10 mM, 6 h), the “genes related to the unfolded protein response” value is “dose dependent increase”. For the same compound, in the assay on primary neurons (1 mM or 10 mM, 6 h), the “cellular component enrichment analysis” value is reported as “significant enrichment of genes related to endoplasmic reticulum”, the “gene set enrichment analysis: gene signature related to unfolded protein response (UPR)” value is “maximal upregulation” and the “plasticity gene program in RNA sequencing” value is given as “upregulation of a broad plasticity gene program”. In the assay with primary neurons (2-DG treatment, primary neurons), the “mitochondrial gene signature in RNA sequencing” value is on record as “didn't show any significant change”. Further, the “expression of ATF4 target genes Trib3 and Chac1” value with Trib3, Chac1, Bip is reported as “enhanced expression; also recorded: Increase”.
